Experimental data reported in PubChem BioAssay AID248 (DTP/NCI, 2004).
Toxic doses and inconclusive results are not listed.

Test system: L1210 leukemia ip in BDF1 mice, survival T/C
Test: NCI In Vivo Anticancer Drug Screen. Data for tumor model L1210 Leukemia (intraperitoneal) in B6D2F1 (BDF1) mice
Conditions: endpoint: mean survival time, higher = longer survival
How it was run: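 Value reflects the ratio of survival in compound-treated mice to survival in vehicle-treated controls, with both groups carrying the same transplanted tumor.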

[1] = dose: 100.0 mg/kg/injection, schedule: Q01DX009 (ip), vehicle: Klucel (hydroxypropylcellulose) (HPC)
[2] = dose: 100.0 mg/kg/injection, schedule: Q04DX003 (ip), vehicle: Klucel (hydroxypropylcellulose) (HPC)
[3] = dose: 200.0 mg/kg/injection, schedule: Q01DX009 (ip), vehicle: Klucel (hydroxypropylcellulose) (HPC)
[4] = dose: 200.0 mg/kg/injection, schedule: Q04DX003 (ip), vehicle: Klucel (hydroxypropylcellulose) (HPC)
[5] = dose: 400.0 mg/kg/injection, schedule: Q01DX009 (ip), vehicle: Klucel (hydroxypropylcellulose) (HPC)
[6] = dose: 400.0 mg/kg/injection, schedule: Q04DX003 (ip), vehicle: Klucel (hydroxypropylcellulose) (HPC)
[7] = dose: 50.0 mg/kg/injection, schedule: Q01DX001 (ip), vehicle: carboxymethylcellulose (CMC)
[8] = dose: 50.0 mg/kg/injection, schedule: Q01DX001 (ip), vehicle: saline
[9] = dose: 100.0 mg/kg/injection, schedule: Q01DX001 (ip), vehicle: carboxymethylcellulose (CMC)
[10] = dose: 100.0 mg/kg/injection, schedule: Q01DX001 (ip), vehicle: saline
[11] = dose: 200.0 mg/kg/injection, schedule: Q01DX001 (ip), vehicle: carboxymethylcellulose (CMC)
[12] = dose: 200.0 mg/kg/injection, schedule: Q01DX001 (ip), vehicle: saline
[13] = dose: 400.0 mg/kg/injection, schedule: Q01DX001 (ip), vehicle: carboxymethylcellulose (CMC)
[14] = dose: 400.0 mg/kg/injection, schedule: Q01DX001 (ip), vehicle: saline
[15] = dose: 100.0 mg/kg/injection, schedule: Q01DX009 (ip), vehicle: saline
[16] = dose: 100.0 mg/kg/injection, schedule: Q04DX003 (ip), vehicle: saline
[17] = dose: 200.0 mg/kg/injection, schedule: Q04DX003 (ip), vehicle: saline
[18] = dose: 25.0 mg/kg/injection, schedule: Q04DX003 (ip), vehicle: saline
[19] = dose: 50.0 mg/kg/injection, schedule: Q04DX003 (ip), vehicle: saline
[20] = dose: 100.0 mg/kg/injection, schedule: Q04DX003 (ip), vehicle: saline with Tween-80
[21] = dose: 200.0 mg/kg/injection, schedule: Q04DX003 (ip), vehicle: saline with Tween-80
[22] = dose: 400.0 mg/kg/injection, schedule: Q04DX003 (ip), vehicle: saline with Tween-80

`NC(=O)N/N=C1\CCCC(OC(=O)c2ccccc2)CC1` (stereo not drawn) was tested, and the T/C [1] was 97 % of control, the T/C [2] was 97 % of control and the T/C [3] was 97 % of control. The T/C [4] was 102 % of control, the T/C [5] was 94 % of control and the T/C [6] was 96 % of control.

With `CC(=O)[O][Ge]([CH2]CC(C)C)([CH2]CC(C)C)[CH2]CC(C)C` the T/C [7] was 100 % of control, the T/C [8] was 100 % of control and the T/C [9] was 100 % of control. The T/C [10] was 102 % of control, the T/C [11] was 100 % of control and the T/C [12] was 106 % of control. The T/C [13] was 96 % of control and the T/C [14] was 118 % of control.

In the case of `O=Nc1ccc(-[n+]2ccccc2)c([N+](=O)[O-])c1`, the T/C (dose: 75.0 mg/kg/injection, schedule: Q01DX001 (ip), vehicle: saline) is reported as 98 % of control.

`Cc1ccc([N+](=O)[O-])cc1NC(=O)N(C(C)C)C1CCCCC1` was tested, and the T/C [1] was 106 % of control, the T/C [3] was 95 % of control and the T/C [5] was 106 % of control.

In the case of `CN(C(=O)OCc1ccccc1)c1ccc(C(=O)NC(CCC(=O)O)C(=O)O)cc1` (stereo not drawn), the T/C [9] is reported as 94 % of control, the T/C [11] is reported as 102 % of control and the T/C [13] is reported as 96 % of control.

`CCCCCCCCCCCCCCCC(=O)Oc1ccc(C(=S)N2CCOCC2)cc1` was tested, and the T/C [2] was 103 % of control, the T/C [4] was 99 % of control and the T/C [6] was 99 % of control.

For `CNc1nc(SCc2ccc(F)cc2)ncc1C`, the T/C (dose: 25.0 mg/kg/injection, schedule: Q01DX Z (ip), vehicle: methylcellulose (MC)) was 96 % of control and the T/C (dose: 50.0 mg/kg/injection, schedule: Q01DX Z (ip), vehicle: methylcellulose (MC)) was 103 % of control.

For `c1ccc2c(c1)CC1c3ccccc3CC21` (stereo not drawn), the T/C [10] was 109 % of control, the T/C [12] was 103 % of control and the T/C [14] was 98 % of control.

For `N#CC1(C(=O)c2ccccc2)C=Cc2ccccc2N1C(=O)c1ccccc1` (stereo not drawn), the T/C (dose: 100.0 mg/kg/injection, schedule: Q01DX001 (ip), vehicle: steriod suspending solution) was 87 % of control, the T/C (dose: 200.0 mg/kg/injection, schedule: Q01DX001 (ip), vehicle: steriod suspending solution) was 90 % of control and the T/C (dose: 400.0 mg/kg/injection, schedule: Q01DX001 (ip), vehicle: steriod suspending solution) was 92 % of control.

`BrC12CC3CC(C1)CC(Br)(C3)C2` was tested, and the T/C [7] was 96 % of control, the T/C [9] was 93 % of control and the T/C [11] was 93 % of control. For the same molecule, the T/C [13] was 102 % of control.

With `NC(=O)CCCN1CCCC1=O` the T/C [15] was 100 % of control, the T/C [16] was 100 % of control and the T/C (dose: 200.0 mg/kg/injection, schedule: Q01DX009 (ip), vehicle: saline) was 111 % of control. For the same molecule, the T/C [17] was 101 % of control, the T/C (dose: 400.0 mg/kg/injection, schedule: Q01DX009 (ip), vehicle: saline) was 110 % of control and the T/C (dose: 400.0 mg/kg/injection, schedule: Q04DX003 (ip), vehicle: saline) was 97 % of control.

In the case of `NN1CCCC1`, the T/C (dose: 50.0 mg/kg/injection, schedule: Q01DX009 (ip), vehicle: saline) is reported as 98 % of control, the T/C [15] is reported as 96 % of control and the T/C [16] is reported as 99 % of control. The T/C [17] was 96 % of control.

For `C1=CC2OC3CCCCC3C2c2ccccc21` (stereo not drawn), the T/C [9] was 95 % of control, the T/C [11] was 95 % of control and the T/C [13] was 98 % of control.

In the case of `COc1ccccc1CN1CCCN(Cc2ccccc2OC)C1c1ccccn1`, the T/C [8] is reported as 100 % of control, the T/C [10] is reported as 100 % of control and the T/C [12] is reported as 100 % of control.

For `CCOP1(=O)OCC(C)(C)CO1`, the T/C [10] was 98 % of control, the T/C [12] was 96 % of control and the T/C [14] was 102 % of control.

With `CC(C)=CCCC(C)CCN(C)C` (stereo not drawn) the T/C [18] was 96 % of control, the T/C [19] was 97 % of control and the T/C [16] was 96 % of control.

With `NC(=O)C(N)CCCN=C(N)N` (stereo not drawn) the T/C (dose: 37.5 mg/kg/injection, schedule: Q01DX001 (ip), vehicle: Klucel (hydroxypropylcellulose) (HPC)) was 103 % of control, the T/C (dose: 75.0 mg/kg/injection, schedule: Q01DX001 (ip), vehicle: Klucel (hydroxypropylcellulose) (HPC)) was 116 % of control and the T/C (dose: 150.0 mg/kg/injection, schedule: Q01DX001 (ip), vehicle: Klucel (hydroxypropylcellulose) (HPC)) was 100 % of control.

In the case of `CC12C=CC(=O)C=C1CCC1C3CCC(O)(C(=O)CO)C3(C)CC(O)C12F` (stereo not drawn), the T/C (dose: 25.0 mg/kg/injection, schedule: Q04DX003 (sc), vehicle: steriod suspending solution) is reported as 108 % of control, the T/C (dose: 50.0 mg/kg/injection, schedule: Q04DX003 (sc), vehicle: steriod suspending solution) is reported as 106 % of control and the T/C (dose: 100.0 mg/kg/injection, schedule: Q04DX003 (sc), vehicle: steriod suspending solution) is reported as 123 % of control. The T/C (dose: 150.0 mg/kg/injection, schedule: Q04DX003 (sc), vehicle: steriod suspending solution) was 100 % of control, the T/C (dose: 225.0 mg/kg/injection, schedule: Q04DX003 (sc), vehicle: steriod suspending solution) was 111 % of control and the T/C (dose: 335.0 mg/kg/injection, schedule: Q04DX003 (sc), vehicle: steriod suspending solution) was 105 % of control.

With `O=C(C[n+]1ccc2ccccc2c1)c1ccc([N+](=O)[O-])cc1` the T/C (dose: 12.5 mg/kg/injection, schedule: Q04DX003 (ip), vehicle: saline) was 101 % of control, the T/C [18] was 103 % of control and the T/C [19] was 107 % of control.

With `O=C(C(Cl)(Cl)CO)C(Cl)(Cl)CO` the T/C [10] was 91 % of control, the T/C [12] was 94 % of control and the T/C [14] was 92 % of control.

With `NCOC(=O)Cc1ccc(Br)cc1` the T/C [1] was 98 % of control, the T/C [2] was 96 % of control and the T/C [3] was 101 % of control. The T/C [4] was 101 % of control, the T/C [5] was 96 % of control and the T/C [6] was 101 % of control.

`Nc1nc2ncn(C3OC(CO)C(O)C3O)c2c(=O)[nH]1` (stereo not drawn) was tested, and the T/C [10] was 105 % of control, the T/C [12] was 104 % of control and the T/C [14] was 104 % of control.

In the case of `O=C(CCl)NC1CCC(CC2CCCCC2)CC1` (stereo not drawn), the T/C [2] is reported as 99 % of control, the T/C [4] is reported as 93 % of control and the T/C [6] is reported as 89 % of control.

With `CC(=O)c1ccccc1[N+](=O)[O-]` the T/C [20] was 107 % of control, the T/C [21] was 96 % of control and the T/C [22] was 94 % of control.

In the case of `CCS(=O)(=O)Nc1ccc(Nc2c3ccccc3nc3ccccc23)c(OC)c1`, the T/C (dose: 2.5 mg/kg/injection, schedule: Q01DX009 (ip), vehicle: Klucel (hydroxypropylcellulose) (HPC)) is reported as 152 % of control, the T/C (dose: 5.0 mg/kg/injection, schedule: Q01DX009 (ip), vehicle: Klucel (hydroxypropylcellulose) (HPC)) is reported as 168 % of control and the T/C (dose: 5.0 mg/kg/injection, schedule: Q01DX009 (ip), vehicle: saline) is reported as 155 % of control. For the same molecule, the T/C (dose: 10.0 mg/kg/injection, schedule: Q01DX009 (ip), vehicle: Klucel (hydroxypropylcellulose) (HPC)) was 163 % of control, the T/C (dose: 10.0 mg/kg/injection, schedule: Q01DX009 (ip), vehicle: saline) was 216 % of control and the T/C (dose: 20.0 mg/kg/injection, schedule: Q01DX009 (ip), vehicle: Klucel (hydroxypropylcellulose) (HPC)) was 86 % of control.

In the case of `O=C1CCCSc2ccccc21`, the T/C [1] is reported as 106 % of control, the T/C [2] is reported as 108 % of control and the T/C [3] is reported as 104 % of control. For the same molecule, the T/C [4] was 106 % of control, the T/C [5] was 106 % of control and the T/C [6] was 101 % of control.

For `CC(=O)OC1CCSCC1`, the T/C [20] was 101 % of control, the T/C [21] was 93 % of control and the T/C [22] was 103 % of control.

With `CCCCCCCCCCOC(=S)S` the T/C (dose: 50.0 mg/kg/injection, schedule: Q04DX002 (sc), vehicle: olive oil, sesame oil, peanut oil) was 100 % of control, the T/C (dose: 100.0 mg/kg/injection, schedule: Q04DX002 (sc), vehicle: olive oil, sesame oil, peanut oil) was 116 % of control and the T/C (dose: 200.0 mg/kg/injection, schedule: Q04DX002 (sc), vehicle: olive oil, sesame oil, peanut oil) was 106 % of control.

For `NC(=S)c1[nH]cnc1N`, the T/C (dose: 27.0 mg/kg/injection, schedule: Q01DX015 (ip), vehicle: saline) was 95 % of control, the T/C (dose: 40.0 mg/kg/injection, schedule: Q01DX015 (ip), vehicle: saline) was 93 % of control and the T/C (dose: 60.0 mg/kg/injection, schedule: Q01DX015 (ip), vehicle: saline) was 101 % of control. For the same molecule, the T/C (dose: 100.0 mg/kg/injection, schedule: Q01DX001 (ip), vehicle: other) was 98 % of control, the T/C [10] was 110 % of control and the T/C (dose: 200.0 mg/kg/injection, schedule: Q01DX001 (ip), vehicle: other) was 95 % of control. For the same molecule, the T/C (dose: 400.0 mg/kg/injection, schedule: Q01DX001 (ip), vehicle: other) was 103 % of control.
